The values below come from publication PMC9890130 (Clinical cancer research : an official journal of the …, 2023).

Data set [1] in a line: Biodistribution of [^68Ga]Ga-DK385. The format is in vivo, mice. The conditions noted are these: mouse, iv, 50 uCi, total radioactivity.
Data set [2] concerns MDAMB231, BFTC909, SUM149, and SCaBER cells. As to the kind of experiment: In vitro binding assay, blocking with non-radioactive DK223. The following applies: 1 μM non-radioactive DK223; P<0.0001. In kind it is cell-based, human.
The next data set concerns the target Human PD-L1 Fc-tagged (Homo sapiens, UniProt Q9NZQ7). In words: Surface plasmon resonance. The format is binding. The following applies: read-out: KD (affinity for PD-L1); SPR, Biacore T200, CM5 chip, 25°C, 1:1 kinetics model; n=3. A general note: Surface plasmon resonance follows binding to a sensor surface in real time, without labels.

SMILES strings stand for the structures. Bridge positions count the residues as written; N and C are the ends. Square brackets hold non-standard residues; d marks the D form. Peptide text beside a SMILES is read from it. * marks the point of attachment. DOTA = O=C(O)CN1CCN(CC(=O)O)CCN(CC(=O)*)CCN(CC(=O)O)CC1; Trp(1-CH2COOH) = N[C@@H](Cc1cn(CC(=O)O)c2ccccc12)C(=O)O; Hyp = O=C(O)[C@@H]1C[C@@H](O)CN1; NMeNle = CCCC[C@H](NC)C(=O)O; NMeA = CN[C@@H](C)C(=O)O

As to `CCCC[C@H]1C(=O)N(C)[C@@H](CCCC)C(=O)N[C@@H](CCCCNC(=O)CCC(C(=O)O)N2CCN(CC(=O)O)CCN(CC(=O)O)CCN(CC(=O)O)CC2)C(=O)N[C@H](C(=O)NCC(N)=O)CSCC(=O)N[C@@H](Cc2ccc(O)cc2)C(=O)N(C)[C@@H](C)C(=O)N[C@@H](CC(N)=O)C(=O)N2CCC[C@H]2C(=O)N[C@@H](Cc2c[nH]cn2)C(=O)N[C@@H](CCC(=O)O)C(=O)N2C[C@H](O)C[C@H]2C(=O)N[C@@H](Cc2c[nH]c3ccccc23)C(=O)N[C@@H](CO)C(=O)N[C@@H](Cc2cn(CC(=O)O)c3ccccc23)C(=O)N1C` (some centres unmarked) [[^68Ga]Ga-DK385, metal not drawn], the tissue to tissue ratio at 1 h turned out to be 2.32 ± 0.38 in data set [1] (tumor and blood); 19.9 ± 2.15 in data set [1] (tumor and muscle). For the same compound, the tissue uptake at 1 h in data set [1] (tumor) amounted to 8.5 ± 1.67 %ID/g.
Consider `CCCC[C@H]1C(=O)N(C)[C@@H](CCCC)C(=O)N[C@@H](CCCCNC(=O)CN2CCN(CC(=O)O)CCN(CC(=O)O)CCN(CC(=O)O)CC2)C(=O)N[C@H](C(=O)NCC(N)=O)CSCC(=O)N[C@@H](Cc2ccc(O)cc2)C(=O)N(C)[C@@H](C)C(=O)N[C@@H](CC(N)=O)C(=O)N2CCC[C@H]2C(=O)N[C@@H](Cc2c[nH]cn2)C(=O)N[C@@H](CCC(=O)O)C(=O)N2C[C@H](O)C[C@H]2C(=O)N[C@@H](Cc2c[nH]c3ccccc23)C(=O)N[C@@H](CO)C(=O)N[C@@H](Cc2cn(CC(=O)O)c3ccccc23)C(=O)N1C` [DK223] ({CH2CO}-Y[NMeA]NPHE[Hyp]WS[Trp(1-CH2COOH)][NMeNle][NMeNle]K(DOTA)CG-NH2; thioether N-14), for which the “[^68Ga]Ga-DK223 uptake in cells incubated with non-radioactive DK223” value in data set [2] is recorded as “significantly reduced”. Moreover, the Kd at Human PD-L1 Fc-tagged was found to be 1.01 ± 0.83 nM.

By tissue uptake is commonly meant the share of the injected amount in each gram of the tissue. A word on the Kd: it is the constant that tells how readily two partners part at equilibrium.
